Assay results: ChEMBL document CHEMBL4699623 (J Med Chem, 2020)

Experiments:
[1] = molecular target: T1, Phenylethanolamine N-methyltransferase (Homo sapiens, UniProt P11086); experiment: Competitive inhibition of C-terminal hexahistidine tag in human recombinant PNMT expressed in Escherichia coli assessed as inhibition constant using AdoMet as substrate in presence of 100 uM PEA as co-substrate by Sigma-plot analysis
T1 sequence (P11086 whole entry): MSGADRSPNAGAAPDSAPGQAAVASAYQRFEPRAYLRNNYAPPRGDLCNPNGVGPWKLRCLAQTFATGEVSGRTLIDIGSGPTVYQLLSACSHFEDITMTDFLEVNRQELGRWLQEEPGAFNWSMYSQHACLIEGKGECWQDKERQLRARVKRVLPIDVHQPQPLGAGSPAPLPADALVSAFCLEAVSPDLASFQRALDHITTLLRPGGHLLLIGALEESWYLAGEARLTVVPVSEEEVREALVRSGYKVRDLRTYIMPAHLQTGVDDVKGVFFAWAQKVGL

[2] = molecular target: T2, Phenylethanolamine N-methyltransferase (Homo sapiens) (UniProt P11086)
T2 sequence (whole entry): T1 sequence (P11086 whole entry)

[3] = molecular target: T3, Alpha-2A adrenergic receptor (Rattus norvegicus, UniProt P22909); experiment: Displacement of [3H]-clonidine from Sprague-Dawley rat alpha2 adrenergic receptor by radioligand binding assay
T3 sequence (P22909 whole entry): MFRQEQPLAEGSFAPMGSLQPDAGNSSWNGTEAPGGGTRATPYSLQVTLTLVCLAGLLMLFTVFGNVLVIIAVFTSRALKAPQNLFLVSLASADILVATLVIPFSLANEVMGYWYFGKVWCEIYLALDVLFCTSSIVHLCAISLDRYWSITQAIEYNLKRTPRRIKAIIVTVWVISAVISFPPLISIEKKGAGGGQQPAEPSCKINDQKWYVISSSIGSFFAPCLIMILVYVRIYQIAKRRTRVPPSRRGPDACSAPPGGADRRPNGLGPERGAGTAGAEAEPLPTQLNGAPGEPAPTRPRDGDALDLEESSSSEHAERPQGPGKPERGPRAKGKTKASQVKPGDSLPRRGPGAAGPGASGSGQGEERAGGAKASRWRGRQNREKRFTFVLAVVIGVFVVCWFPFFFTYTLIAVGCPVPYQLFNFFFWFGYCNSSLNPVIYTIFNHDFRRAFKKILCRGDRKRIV

Nc1ncnc2c1ncn2[C@@H]1O[C@H](CSCC[C@H](N)C(=O)O)[C@@H](O)[C@H]1O [S-ADENOSYLHOMOCYSTEINE]
Ki [1]: 14 µM

NCC1Cc2ccccc2CN1 (stereo not given)
Kis [2]: 1.4 µM | Ki [3]: 1.5 µM

NC(=O)C1Cc2ccccc2CN1 (stereo not given)
Kis [2]: 31 µM | Ki [3]: 250 µM
